Results taken from patent US12415939B2, “Nano-adhesive and surface primer compound and use thereof” (The Regents of the University of California, priority 2015, dated 2025).

What was measured:
[1] = AFM force between Z-Cat-Ben SAM on silica and a silica bead; assay type: physicochemical; conditions: SAM on silica from 5 mM
From the text: The pristine self-assemble of the Z-Cat-Ben molecules on silica surface exposed the aromatic residues to the air-water interface resulting in a low interfacial energy between a silica bead and the SAM surface as measured with the AFM technique (Wad˜0.07 mJ/m^2, see FIG. 47). This is unlike the strong adhesion of SAMs exposing catechol residues to the air water interface that bind to silica surface through hydrogen bonding interactions (Wad˜7.7 mJ/m^2).

[2] = AFM adhesion force runs with silica probe on Z-Cat-C10 coated copper plate; assay type: physicochemical; conditions: CuO2/Cu(OH)2 and SiO2 surfaces
Protocol: AFM force runs were measured with and without Z-Cat-C10 on silicon wafer and copper plate, respectively, vs. silicon dioxide probe. Underwater force run was conducted for the surface prepared subsequently after spreading the 5 mM Z-Cat-C10, waiting for 2 min, rinsing thoroughly with degassed DI water thoroughly for 3 times. Dry force run was performed after ˜5 min dry of the surface prepared as for the underwater force run. […] Cantilever spring constant (K) for #=10 μm silica tip on silicon wafer and copper plate with Z-Cat-C10, was 0.1 N m^−1.
The measured adhesion, Fa, force (minimum of the potential well of the F vs. D curves obtained from AFM measurements) is related to the adhesion energy per unit area by Wa=Fa/2πR for rigid surfaces with weak adhesive interactions, and by Wa=Fa/1.5πR (used in this study) for soft deformable surfaces with strong adhesion or cohesion. […]
The adhesion/cohesion energy of the synthetic zwitterionic molecules was investigated in SFA (SurForce LLC, Santa Barbara, CA). […] The adhesion forces between Z-Cat-C10 molecules on various surfaces, e.g., silica and copper, were also measured by AFM (MFP-3D, Asylum research, Goleta, CA) in DI water and ambient conditions, respectively, at room temperature. […] Cantilever spring constants were measured for each force run. […]

[3] = Lap joint bending peel test
Protocol: Below are the detailed methods following in sequential order in time: • 1) The aqueous Z-Cat-C10 solution was prepared at 100 mg ml^−1 concentration (very turbid solution at room temperature) (FIG. 10A test-tube on the left). • 2) The solution was centrifuged at 3000 rpm (805×g) for 5 min to expedite the process of liquid-liquid phase separation (FIG. 10A test-tubes in the middle and the right). 3) The lower dense coacervate phase was collected in a syringe (FIG. 24A) and injected (spread, ˜10 μl) over a steel plate immersed in water i.e., artificial sea water, aqueous periodate solution, and DI water, respectively (FIG. 24B). • 4) Another steel plate glued onto the steel plate with coacervates on as a lap joint (cross-sectional area 2.54 cm×2.54 cm. • 5) The each lap joint was loaded (250 g) for 12 h of compressive setting (FIG. 24C). • 6) The lap joint bending peel test was conducted underwater for each lap joint prepared in artificial seawater, aqueous periodate solution, and DI water, respectively (FIGS. 24D-24F). • 7) The lap joint bending peel test was conducted dry ambient condition for the lap joint prepared in the periodate solution after 12 h drying in ambient condition Standard Three Point Bending Peel Test
The catecholic zwitterions were inspired by interfacial proteins (mfp-3 and -5) that function as adhesive primers, but not as bulk adhesives. To determine whether Z-Cat-C10 is limited to surface binding or develops measurable bulk cohesion (thickness […]), bulk rupture tests were done using a peeling-by-bending test to better mimic the role that interfacial proteins play in resisting plaque detachment as well as lap-shear bonding test. Lap joints were prepared by gluing two steel plates (SS304) immersed in water using the lower dense coacervate (˜10 μl) (FIGS. 24A-24H). The lap joint (cross-sectional area=2.54 cm×2.54 cm) prepared in artificial seawater or periodate solution, respectively, held a load up to 3 N underwater. […] After 12 h ambient drying, the joint prepared in 1 M periodate solution held much higher load, 11 N: Standard three point bending peel strength of the lap joint (cross-sectional area=2.54 cm×1.27 cm) was measured under ambient dry conditions after drying 12 h. […] Shear bonding strength of the lap joint (cross-sectional area=2.54 cm×2.54 cm) was also measured, 1.1 MPa (standard deviation=0.3, n=4)—similar to Dopa-functionalized polypeptide prepared under ambient dry conditions, 0.9 MPa. […] Nevertheless, the results present that the zwitterionic surfactants were capable of micro-gap-filling as well as nano-gap-filling shown in AFM and SFA, and indicate that they are more versatile than surface primers. The results also attest to the self-assembling ability of Z-Cat-C10 (FIGS. 13A-13C, double bilayer structure).

[4] = Critical aggregation concentration by Wilhelmy plate tensiometry; assay type: physicochemical; conditions: DI water
Protocol: (§1) Aqueous colloidal dispersions of each homolog were prepared in deoxygenated deionized (DI) water. The critical aggregation concentration (CAC) was determined from the solution surface tension of varying homolog concentrations in deionized (DI) water (e.g., see the red line of Z-Cat-C10 in FIG. 2B) by Wilhelmy plate tensiometry and has been described elsewhere. Use of the CAC instead of CMC here is a hedge to accommodate the uncertainty about whether micelles or other soluble aggregates were forming.
as §1, with “the” for “the red”

[5] = AFM images of Z-Cat-C10 films; assay type: physicochemical; conditions: 5 mM, on silicon wafers and copper
Protocol: The adhesion/cohesion energy of the synthetic zwitterionic molecules was investigated in SFA (SurForce LLC, Santa Barbara, CA). Two molecularly smooth freshly cleaved back silvered mica surfaces glued on cylindrical silica discs of radius of curvature, R˜2 cm, were mounted in the SFA and 50 μL of a colloidal dispersion of the synthetic molecules in DI water were injected between the surfaces at different concentrations (C=0.5-5 mM) and the forces between the thin films of the molecules were measured by Multiple Beam Interferometry (MBI). The adhesion forces between Z-Cat-C10 molecules on various surfaces, e.g., silica and copper, were also measured by AFM (MFP-3D, Asylum research, Goleta, CA) in DI water and ambient conditions, respectively, at room temperature. AFM probes with a silicon dioxide particle (10, 5, and 1 μm, respectively) on a silicon nitride (SN) cantilever-0.6 N m^−1 were purchased from Novascan Technologies, Inc (Ames, IA). Cantilever spring constants were measured for each force run. Images of Z-Cat-C10 coating on silicon wafer and copper plates were visualized in an AFM.

[6] = Shear bonding strength of the lap joint; conditions: cross-sectional area 2.54 cm×2.54 cm, n=4
Protocol: The catecholic zwitterions were inspired by interfacial proteins (mfp-3 and -5) that function as adhesive primers, but not as bulk adhesives. To determine whether Z-Cat-C10 is limited to surface binding or develops measurable bulk cohesion (thickness […]), bulk rupture tests were done using a peeling-by-bending test to better mimic the role that interfacial proteins play in resisting plaque detachment as well as lap-shear bonding test. Lap joints were prepared by gluing two steel plates (SS304) immersed in water using the lower dense coacervate (˜10 μl) (FIGS. 24A-24H). The lap joint (cross-sectional area=2.54 cm×2.54 cm) prepared in artificial seawater or periodate solution, respectively, held a load up to 3 N underwater. […] After 12 h ambient drying, the joint prepared in 1 M periodate solution held much higher load, 11 N: Standard three point bending peel strength of the lap joint (cross-sectional area=2.54 cm×1.27 cm) was measured under ambient dry conditions after drying 12 h. […] Shear bonding strength of the lap joint (cross-sectional area=2.54 cm×2.54 cm) was also measured, 1.1 MPa (standard deviation=0.3, n=4)—similar to Dopa-functionalized polypeptide prepared under ambient dry conditions, 0.9 MPa. […]

| SMILES | interfacial energy Wad between silica bead and SAM [1] | adhesion Wad after air-drying ([2]; air-dried ~5 min) | wet work of adhesion Wad ([2]; underwater) | load held by lap joint ([3]; dry ambient conditions (Z-Cat-C10 joint prepared in aqueous periodate)) | load held by lap joint ([3]; prepared in 1 M periodate, after 12 h ambient drying) | load held by lap joint ([3]; prepared in DI water) | load held by lap joint ([3]; underwater, prepared in artificial seawater or periodate solution) | critical aggregation concentration (CAC), rank [4] | film thickness (thin, molecularly smooth films) [5] | shear bonding strength of the lap joint [6] |
| --- | --- | --- | --- | --- | --- | --- | --- | --- | --- | --- |
| C[N+](C)(CCCc1ccccc1)CCOP(=O)([O-])OCCCc1ccc(O)c(O)c1 [Z-Cat-Ben] | ~0.07 mJ/m^2 |  |  |  |  |  |  |  |  |  |
| CN(C)CCOP(=O)(O)OCCCc1ccc(O)c(O)c1 [Z-Cat-C10] |  | ~4 mJ m^−2 | ~0.1 mJ m^−2 | ≤ 1.1 kg | 11 N | 1 N | up to 3 N | lowest CAC among the homologs | ~2 nm | 1.1 MPa |
